Assay results published in patent US20250320213A1, “Nitrogen-Containing Heterocyclic Compounds” (Pfizer Inc., priority 2024, published 2025).

Target: T1, STAT6 (Homo sapiens, UniProt P42226)
T1 construct: stably transfected HaCaT keratinocyte cell line, which expresses NanoLuc luciferase reporter gene under the transcriptional control of the STAT6 responsive promoter; endogenous in cells; host or cells: HaCaT keratinocyte reporter cell line (stably transfected with a NanoLuc reporter)
T1 sequence (P42226 1-847): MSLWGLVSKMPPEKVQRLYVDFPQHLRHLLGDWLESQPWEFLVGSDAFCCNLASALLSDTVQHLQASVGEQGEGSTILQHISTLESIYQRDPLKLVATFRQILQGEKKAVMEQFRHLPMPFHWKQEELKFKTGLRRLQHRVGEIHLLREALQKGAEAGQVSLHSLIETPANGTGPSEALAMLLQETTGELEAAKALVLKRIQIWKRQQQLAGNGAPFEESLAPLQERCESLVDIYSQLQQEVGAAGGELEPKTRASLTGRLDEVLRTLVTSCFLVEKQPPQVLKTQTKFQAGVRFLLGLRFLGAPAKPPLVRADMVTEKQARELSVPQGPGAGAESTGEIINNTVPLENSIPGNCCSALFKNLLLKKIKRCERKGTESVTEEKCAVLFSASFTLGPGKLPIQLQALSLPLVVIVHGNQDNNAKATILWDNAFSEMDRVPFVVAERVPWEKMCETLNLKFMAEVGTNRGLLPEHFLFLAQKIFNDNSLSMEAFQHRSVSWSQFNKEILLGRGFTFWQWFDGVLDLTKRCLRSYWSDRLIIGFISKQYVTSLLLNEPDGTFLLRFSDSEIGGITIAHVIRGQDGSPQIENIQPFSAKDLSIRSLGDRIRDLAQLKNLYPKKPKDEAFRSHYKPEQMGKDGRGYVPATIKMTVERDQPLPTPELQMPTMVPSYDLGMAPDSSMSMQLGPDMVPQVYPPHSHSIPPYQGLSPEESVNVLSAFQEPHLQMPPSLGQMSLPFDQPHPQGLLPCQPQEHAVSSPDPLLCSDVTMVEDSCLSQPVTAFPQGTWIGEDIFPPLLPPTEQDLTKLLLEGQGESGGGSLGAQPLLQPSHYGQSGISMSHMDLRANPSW
Assay: STAT6 Reporter Luciferase Assay (IL-13 stimulated HaCaT keratinocyte NanoLuc reporter cells)
Assay type: cell-based
Conditions: IL-13 stimulated HaCaT STAT6 NanoLuc reporter cells; read-out: Reporter EC50
How it was run: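 Stably transfected HaCaT cells carrying NanoLuc under the STAT6-responsive IL-13Ra2 promoter were pre-treated with compound (11-point, 4-fold series, duplicate) for 2 h at 37 °C, then stimulated with 0.12 nM IL-13 for 4 h. Nano-Glo luminescence was read after 15 min.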

Row | EC50 | SMILES
1 | 1 nM | CC(C)n1nc(C(=O)NCc2ccc(NC(=O)N3CCN(C)CC3)cc2)c2c1[C@@H](C)CN(c1ccc3c(c1)CCCN(C)C3=O)C2 [Example 651, (S)-1-isopropyl-7-methyl-5-(2-methyl-1-oxo-2,3,4,5-tetrahydro-1H-benzo[c]azepin-7-yl)-N-(4-(4-methylpiperazine-1-carboxamido)benzyl)-4,5,6,7-tetrahydro-1H-pyrazolo[4,3-c]pyridine-3-carboxamide]
2 | 5 nM | Cc1nn(C)c(=O)n1-c1ccc(N2Cc3c(C(=O)NCc4ccc(NC(=O)N5CCN(C)CC5)cc4)nn(C(C)C)c3[C@@H](C)C2)cc1 [Example 652, (S)-5-(4-(1,3-dimethyl-5-oxo-1,5-dihydro-4H-1,2,4-triazol-4-yl)phenyl)-1-isopropyl-7-methyl-N-(4-(4-methylpiperazine-1-carboxamido)benzyl)-4,5,6,7-tetrahydro-1H-pyrazolo[4,3-c]pyridine-3-carboxamide]
3 | 3 nM | CC(C)n1nc(C(=O)NCc2ccc(NC(=O)N3CCN(C)CC3)cc2)c2c1[C@@H](C)CN(c1ccc(-c3nccn3C3CC3)cn1)C2 [Example 653, (S)-5-(5-(1-cyclopropyl-1H-imidazol-2-yl)pyridin-2-yl)-1-isopropyl-7-methyl-N-(4-(4-methylpiperazine-1-carboxamido)benzyl)-4,5,6,7-tetrahydro-1H-pyrazolo[4,3-c]pyridine-3-carboxamide]
4 | 2 nM | CC(C)n1nc(C(=O)NCc2ccc(NC(=O)N3CCN(C)CC3)cc2)c2c1[C@@H](C)CN(c1ccc(-c3nccn3C(F)F)cn1)C2 [Example 654, (S)-5-(5-(1-(difluoromethyl)-1H-imidazol-2-yl)pyridin-2-yl)-1-isopropyl-7-methyl-N-(4-(4-methylpiperazine-1-carboxamido)benzyl)-4,5,6,7-tetrahydro-1H-pyrazolo[4,3-c]pyridine-3-carboxamide]
5 | 2 nM | CC(C)n1nc(C(=O)NCc2ccc(NC(=O)N3CCN(C)CC3)cc2)c2c1[C@@H](C)CN(c1ccc(-c3nncn3C3CC3)cn1)C2 [Example 655, (S)-5-(5-(4-cyclopropyl-4H-1,2,4-triazol-3-yl)pyridin-2-yl)-1-isopropyl-7-methyl-N-(4-(4-methylpiperazine-1-carboxamido)benzyl)-4,5,6,7-tetrahydro-1H-pyrazolo[4,3-c]pyridine-3-carboxamide]
6 | 2 nM | Cc1noc(=O)n1-c1ccc(N2Cc3c(C(=O)NCc4ccc(NC(=O)N5CCN(C)CC5)cc4)nn(C(C)C)c3[C@@H](C)C2)cc1 [Example 656, (S)-1-isopropyl-7-methyl-5-(4-(3-methyl-5-oxo-1,2,4-oxadiazol-4(5H)-yl)phenyl)-N-(4-(4-methylpiperazine-1-carboxamido)benzyl)-4,5,6,7-tetrahydro-1H-pyrazolo[4,3-c]pyridine-3-carboxamide]
7 | 2 nM | CC(C)n1nc(C(=O)NCc2ccc(NC(=O)N3CCN(C)CC3)cc2)c2c1[C@@H](C)CN(c1ccc3c(c1)OCCN(C)C3=O)C2 [Example 657, (S)-1-isopropyl-7-methyl-5-(4-methyl-5-oxo-2,3,4,5-tetrahydrobenzo[f][1,4]oxazepin-8-yl)-N-(4-(4-methylpiperazine-1-carboxamido)benzyl)-4,5,6,7-tetrahydro-1H-pyrazolo[4,3-c]pyridine-3-carboxamide]
8 | 4 nM | CC(C)n1nc(C(=O)NCc2ccc(NC(=O)N3CCN(C)CC3)cc2)c2c1[C@@H](C)CN(c1ccc(-c3nncn3C)cn1)C2 [Example 658, (S)-1-isopropyl-7-methyl-5-(5-(4-methyl-4H-1,2,4-triazol-3-yl)pyridin-2-yl)-N-(4-(4-methylpiperazine-1-carboxamido)benzyl)-4,5,6,7-tetrahydro-1H-pyrazolo[4,3-c]pyridine-3-carboxamide]
9 | 8 nM | CC(C)n1nc(C(=O)NCc2ccc(NC(=O)N3CC(C)(N(C)C)C3)c(F)c2)c2c1[C@@H](C)CN(c1ccc(C(=O)N(C)C)cc1)C2 [Example 659, (S)-N-(4-(3-(dimethylamino)-3-methylazetidine-1-carboxamido)-3-fluorobenzyl)-5-(4-(dimethylcarbamoyl)phenyl)-1-isopropyl-7-methyl-4,5,6,7-tetrahydro-1H-pyrazolo[4,3-c]pyridine-3-carboxamide]
10 | 4 nM | CC(C)n1nc(C(=O)NCc2ccc(NC(=O)N3CCC4(CCN(C)CC4)CC3)c(F)c2)c2c1[C@@H](C)CN(c1ccc(C(=O)N(C)C)cc1)C2 [Example 660, (S)-N-(4-((5-(4-(dimethylcarbamoyl)phenyl)-1-isopropyl-7-methyl-4,5,6,7-tetrahydro-1H-pyrazolo[4,3-c]pyridine-3-carboxamido)methyl)-2-fluorophenyl)-9-methyl-3,9-diazaspiro[5.5]undecane-3-carboxamide]
11 | 5 nM | CC(C)n1nc(C(=O)NCc2ccc(NC(=O)N(C)C)cc2)c2c1[C@@H](C)CN(c1ccc(C(=O)N(C)C[C@H]3[C@@H]4CN(C)C[C@@H]43)cc1)C2 [Example 661, (S)-N-(4-(3,3-dimethylureido)benzyl)-1-isopropyl-7-methyl-5-(4-(methyl(((1R,5S,6r)-3-methyl-3-azabicyclo[3.1.0]hexan-6-yl)methyl)carbamoyl)phenyl)-4,5,6,7-tetrahydro-1H-pyrazolo[4,3-c]pyridine-3-carboxamide]
12 | 3 nM | CC(C)n1nc(C(=O)NCc2ccc(NC(=O)N(C)C)cc2)c2c1[C@@H](C)CN(c1ccc(C(=O)N(C)CC3CCN(Cc4ccccc4)CC3)cc1)C2 [Example 662, (S)-5-(4-(((1-benzylpiperidin-4-yl)methyl)(methyl)carbamoyl)phenyl)-N-(4-(3,3-dimethylureido)benzyl)-1-isopropyl-7-methyl-4,5,6,7-tetrahydro-1H-pyrazolo[4,3-c]pyridine-3-carboxamide]
13 | 201 nM | CC(C)n1nc(C(=O)NCc2ccc(NC(=O)N3CCN(CCC(=O)O)CC3)c(F)c2)c2c1[C@@H](C)CN(c1ccc(C(=O)N(C)C)cc1)C2 [Example 669, (S)-3-(4-((4-((5-(4-(dimethylcarbamoyl)phenyl)-1-isopropyl-7-methyl-4,5,6,7-tetrahydro-1H-pyrazolo[4,3-c]pyridine-3-carboxamido)methyl)-2-fluorophenyl)carbamoyl)piperazin-1-yl)propanoic acid]
14 | 0.2 nM | CC(C)n1nc(C(=O)NCc2ccc(NC(=O)N3CCN(C)CC3)cc2)c2c1[C@@H](C)CN(c1ccc(-n3ccnn3)cc1)C2 [Example 674, (S)-5-(4-(1H-1,2,3-triazol-1-yl)phenyl)-1-isopropyl-7-methyl-N-(4-(4-methylpiperazine-1-carboxamido)benzyl)-4,5,6,7-tetrahydro-1H-pyrazolo[4,3-c]pyridine-3-carboxamide]
15 | 34 nM | CC(C)n1nc(C(=O)NCc2ccc(NC(=O)N(C)C)cc2)c2c1[C@@H](C)CN(c1ccc(C(=O)N3CCN4CCC[C@@H]4C3)cc1)C2 [Example 675, (S)-N-(4-(3,3-dimethylureido)benzyl)-1-isopropyl-7-methyl-5-(4-((R)-octahydropyrrolo[1,2-a]pyrazine-2-carbonyl)phenyl)-4,5,6,7-tetrahydro-1H-pyrazolo[4,3-c]pyridine-3-carboxamide]
16 | 0.3 nM | CC(C)n1nc(C(=O)NCc2ccc(NC(=O)N(C)C)cc2)c2c1[C@@H](C)CN(c1ccc(C(=O)N3Cc4cccnc4C3)cc1)C2 [Example 676, (S)-5-(4-(6,7-dihydro-5H-pyrrolo[3,4-b]pyridine-6-carbonyl)phenyl)-N-(4-(3,3-dimethylureido)benzyl)-1-isopropyl-7-methyl-4,5,6,7-tetrahydro-1H-pyrazolo[4,3-c]pyridine-3-carboxamide]
17 | 3 nM | CC(C)n1nc(C(=O)NCc2ccc(NC(=O)N3CC[C@@H](N(C)C)C3)c(F)c2)c2c1[C@@H](C)CN(c1ccc(C(=O)N(C)C)cc1)C2 [Example 678, (S)-N-(4-((R)-3-(dimethylamino)pyrrolidine-1-carboxamido)-3-fluorobenzyl)-5-(4-(dimethylcarbamoyl)phenyl)-1-isopropyl-7-methyl-4,5,6,7-tetrahydro-1H-pyrazolo[4,3-c]pyridine-3-carboxamide]
18 | 3 nM | CC(C)n1nc(C(=O)NCc2ccc(NC(=O)N3CCC(C)(N(C)C)C3)c(F)c2)c2c1[C@@H](C)CN(c1ccc(C(=O)N(C)C)cc1)C2 (stereo partly drawn) [Example 679, (7S)-N-(4-(3-(dimethylamino)-3-methylpyrrolidine-1-carboxamido)-3-fluorobenzyl)-5-(4-(dimethylcarbamoyl)phenyl)-1-isopropyl-7-methyl-4,5,6,7-tetrahydro-1H-pyrazolo[4,3-c]pyridine-3-carboxamide]
